Counter-ions that a name gives are not always drawn.
Biological target: T1, butyrylcholinesterase (BChE) (Equus caballus, UniProt P81908)
T1 construct: purchased Merck Life Science S.r.l; (Milan, Italy); host or cells: equine serum
Assay: In vitro BChE inhibition test (spectrophotometric, Ellman)
Format: biochemical, equine
Conditions: 1.0 µg/mL in reaction mixture, read-out: % Enzyme Inhibition (n = 3)
Procedure: The assays were optimized for essential oil matrices, particularly by adjusting solvent conditions (DMSO content), substrate/enzyme ratios, and assay timing to ensure measurements within the linear kinetic range. The percentage inhibition of AChE, BChE, α-glucosidase, lipase and tyrosinase was measured according to the equation below: % Inhibition=∆AControl−∆A(Sample)/∆AControl×100 where: ∆A (Control) = A Control − A Control Blank∆A(Sample) = A Sample − A Sample Blank
The buffers used in the experiment were: buffer A (50 mM Tris-HCl, pH 8), buffer B (50 mM Tris-HCl, pH 8, supplemented with 0.1% bovine albumin and 0.1% TWEEN20) and buffer C (50 mM Tris-HCl, pH 8, containing 0.1 M NaCl and 0.02 M MgCl2•6H2O). The solutions for both enzymes (0.22 U/mL) were prepared using buffer B. Acetylthiocholine iodide (ATCI) at 1.5 mM was dissolved in Millipore water, while butyrylthiocholine iodide (BTCI) was dissolved in buffer A. Ellman’s reagent solution (3 mM) was prepared in buffer C.
The final concentration of DMSO in the reaction mixture was 0.3%. The mixture was incubated at 30 °C for 6 min, after which absorbance was measured at 405 nm.

T1 sequence (P81908 whole entry): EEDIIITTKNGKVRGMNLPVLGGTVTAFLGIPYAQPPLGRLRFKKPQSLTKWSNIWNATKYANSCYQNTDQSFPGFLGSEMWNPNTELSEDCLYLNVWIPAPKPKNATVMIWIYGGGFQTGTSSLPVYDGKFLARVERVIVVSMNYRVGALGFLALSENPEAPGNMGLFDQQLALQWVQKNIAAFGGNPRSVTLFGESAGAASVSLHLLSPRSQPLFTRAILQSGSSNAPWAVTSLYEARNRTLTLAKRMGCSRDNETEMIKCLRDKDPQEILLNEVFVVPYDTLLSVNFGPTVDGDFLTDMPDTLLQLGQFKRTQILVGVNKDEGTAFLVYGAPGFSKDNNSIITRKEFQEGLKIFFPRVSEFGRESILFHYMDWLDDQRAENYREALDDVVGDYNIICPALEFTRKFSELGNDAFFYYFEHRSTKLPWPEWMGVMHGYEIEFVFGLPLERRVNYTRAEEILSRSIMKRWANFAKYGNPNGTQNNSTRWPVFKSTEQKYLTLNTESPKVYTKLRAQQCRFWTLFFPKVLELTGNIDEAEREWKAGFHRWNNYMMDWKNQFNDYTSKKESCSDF

## COc1ccc2c3c1O[C@H]1C[C@@H](O)C=C[C@@]31CCN(C)C2 [Galanthamine, galanthamine hydrobromide]
  inhibition at 1 µg/mL: 24.7%

From article PMC13119441, “Linking Chemical Profile to Enzyme Inhibition: A Comprehensive Bio-Guided Study of Lippia origanoides Kunth Essential Oil” (Plants, 2026)
